Source: ChEMBL document CHEMBL5325436, “Discovery of ML210-Based glutathione peroxidase 4 (GPX4) degrader inducing ferroptosis of human cancer cells” (Eur J Med Chem, 2023)
Each block holds one compound with its values, some of them ahead of it. Calls of active or inactive are those of the source. The rule behind the calls is not given here.

Columns and labels:
[1] = biological target: T1, Protein cereblon/Phospholipid hydroperoxide glutathione peroxidase GPX4 (Homo sapiens) (UniProt Q96SW2+P36969); test: PROTAC activity at CRBN/GPX4 in human HT-1080 cells assessed as induction of GPX4 degradation at 1 uM incubated for 24 hrs by Western blot analysis relative to control; format: cell-based
[2] = biological target: T1, Protein cereblon/Phospholipid hydroperoxide glutathione peroxidase GPX4 (Homo sapiens); test: PROTAC activity at CRBN/GPX4 in human HT-1080 cells assessed as induction of GPX4 degradation at 0.1 uM incubated for 24 hrs by Western blot analysis relative to control; format: cell-based
[3] = biological target: T1, Protein cereblon/Phospholipid hydroperoxide glutathione peroxidase GPX4 (Homo sapiens); test: (§1) PROTAC activity at CRBN/GPX4 in human HT-1080 cells assessed as induction of GPX4 degradation incubated for 24 hrs by Western blot analysis; format: cell-based
[4] = biological target: Protein cereblon/Phospholipid hydroperoxide glutathione peroxidase GPX4 (Homo sapiens, UniProt P36969+Q96SW2); test: as §1; format: cell-based
[5] = biological target: T1, Protein cereblon/Phospholipid hydroperoxide glutathione peroxidase GPX4 (Homo sapiens); test: PROTAC activity at CRBN/GPX4 in human HT-1080 cells assessed as induction of GPX4 degradation at 1 uM by Western blot analysis; format: cell-based; conditions: time <= 24.0 hrs, TDE = time-dependent effect
[6] = biological target: T1, Protein cereblon/Phospholipid hydroperoxide glutathione peroxidase GPX4 (Homo sapiens); test: PROTAC activity at CRBN/GPX4 in human HT-1080 cells assessed as induction of GPX4 degradation at 0.3 uM incubated for 24 hrs by Western blot analysis relative to control; format: cell-based
[7] = biological target: T1, Protein cereblon/Phospholipid hydroperoxide glutathione peroxidase GPX4 (Homo sapiens); test: PROTAC activity at CRBN/GPX4 in human HT-1080 cells assessed as induction of GPX4 degradation at 0.1 uM incubated for 12 hrs by Western blot analysis relative to control; format: cell-based
[8] = biological target: T1, Protein cereblon/Phospholipid hydroperoxide glutathione peroxidase GPX4 (Homo sapiens); test: Potency index, ratio of […] EC50 to test compound EC50 for PROTAC activity at CRBN/GPX4 in human HT-1080 cells; format: cell-based
HT-1080 [9] = test: Antiproliferative activity against human HT-1080 cells assessed as reduction in cell viability incubated for 24 hrs by MTT assay; format: functional, cell-based; conditions: HT-1080, 24 h
Calu-1 = test: Antiproliferative activity against human Calu-1 cells assessed as reduction in cell viability incubated for 24 hrs by MTT assay; format: functional, cell-based; conditions: Calu-1, 24 h
A-375 = test: Antiproliferative activity against human A-375 cells assessed as reduction in cell viability incubated for 24 hrs by MTT assay; format: functional, cell-based; conditions: A-375, 24 h
[10] = Cytotoxicity against HEK293T cells assessed as reduction in cell viability measured after 24 hrs by MTT assay; format: toxicity, cell-based, HEK-293T; conditions: human
[11] = Potency index, ratio of test compound IC50 to ML210 IC50 for cytotoxicity against HEK293T cells; format: toxicity, cell-based, HEK-293T; conditions: human, read-out: Ratio IC50
Mus musculus = test: In vivo PROTAC activity at CRBN/GPX4 in human HT-1080 cells xenografted in Balb/c nude mouse assessed as reduction in GPX4 level in tumor at 20 mg/kg,iv administered as single dose by immunoblotting analysis; format: functional, organism-based; conditions: time 6-48 hrs, TDE = time-dependent effect
[12] = Toxicity in Balb/c nude mouse xenografted with human HT-1080 cells assessed as body weight loss at 5 to 40 mg/kg, iv administered once every two days for 10 days; format: organism-based; conditions: in vivo, 240 h, dose 5-40 mg/kg, time 10 day
[13] = biological target: T1, Protein cereblon/Phospholipid hydroperoxide glutathione peroxidase GPX4 (Homo sapiens); test: PROTAC activity at CRBN/GPX4 in human HT-1080 cells assessed as induction of GPX4 degradation in the presence of ML210 by ligand competition assay; format: cell-based
[14] = biological target: T1, Protein cereblon/Phospholipid hydroperoxide glutathione peroxidase GPX4 (Homo sapiens); test: PROTAC activity at CRBN/GPX4 in human HT-1080 cells assessed as induction of GPX4 degradation in the presence of lenalidomide by ligand competition assay; format: cell-based
[15] = biological target: T1, Protein cereblon/Phospholipid hydroperoxide glutathione peroxidase GPX4 (Homo sapiens); test: PROTAC activity at CRBN/GPX4 in human HT-1080 cells assessed as induction of GPX4 degradation at 0.1 uM preincubated with MG132 and Baf-A1 for 2 hrs followed by compound addition and measured after 12 hrs by Western blot analysis; format: cell-based
HT-1080 [16] = test: Induction of ferroptosis in human HT-1080 cells assessed as cell death at 0.3 uM preincubated with liproxstin-1 for 2 hrs followed by compound addition and measured after 12 hrs by fluorescence intensity based flow cytometric analysis; format: functional
HT-1080 [17] = test: Induction of ferroptosis in human HT-1080 cells assessed as increase in ROS accumulation at 0.3 uM measured upto 12 hrs by fluorescence intensity based flow cytometric analysis; format: functional, cell-based
HT-1080 [18] = test: Antiproliferative activity against human HT-1080 cells assessed as reduction in cell viability at 10 uM incubated for 24 hrs in the presence of liproxstin-1 by MTT assay; format: functional, cell-based
[19] = Toxicity in Balb/c nude mouse xenografted with human HT-1080 cells assessed as body weight loss at 3 mg/kg, iv administered once every two days for 10 days; format: organism-based; conditions: in vivo, 240 h, time 10 day
HT-1080 [20] = test: Induction of ferroptosis in human HT-1080 cells assessed as increase in ROS accumulation at 0.3 uM measured at 6 to 12 hrs by fluorescence intensity based flow cytometric analysis; format: functional, cell-based; conditions: time 6-12 hrs
[21] = biological target: T2, Phospholipid hydroperoxide glutathione peroxidase GPX4 (Homo sapiens, UniProt P36969); test: Induction of GPX4 degradation in human HT-1080 cells measured after 24 hrs; format: cell-based
T2 sequence (P36969 whole entry): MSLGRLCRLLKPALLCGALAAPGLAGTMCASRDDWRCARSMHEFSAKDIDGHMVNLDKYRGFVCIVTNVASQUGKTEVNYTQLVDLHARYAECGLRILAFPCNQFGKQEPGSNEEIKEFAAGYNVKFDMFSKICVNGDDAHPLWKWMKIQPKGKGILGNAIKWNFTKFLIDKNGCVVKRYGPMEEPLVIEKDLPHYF

[22] = biological target: T3, Phospholipid hydroperoxide glutathione peroxidase GPX4 (Homo sapiens) (UniProt P36969); test: Induction of GPX4 degradation in human HT-1080 cells measured after 12 hrs relative to control; format: cell-based
T3 sequence (whole entry): T2 sequence (P36969 whole entry)

[23] = biological target: T3, Phospholipid hydroperoxide glutathione peroxidase GPX4 (Homo sapiens); test: Induction of GPX4 degradation in human HT-1080 cells assessed as reduction in GPX4 protein level measured after 6 hrs; format: cell-based

Structure (SMILES): Cc1onc(C(=O)N2CCN(C(c3ccc(Cl)cc3)c3ccc(OCC(=O)N4CCC(CN5CCN(CCCNc6cccc7c6C(=O)N(C6CCC(=O)NC6=O)C7=O)CC5)CC4)cc3)CC2)c1[N+](=O)[O-] (centres undefined)
Activity [1]: > 78%
Activity [2]: 82%
Activity [3]: Dose-Dependent Effect
EC50 [4]: 30 nM
Activity [5]: Tde
Activity [6]: 100%
Activity [7]: > 80%
Ratio EC50 [8]: 22
IC50 (HT-1080 [9]): 100 nM
IC50 (Calu-1): 300 nM
IC50 (A-375): 200 nM
IC50 at 24 h [10]: 1100 nM
selectivity ratio [11]: 5
Activity (Mus musculus): Tde
Activity [12]: Non-Toxic
Activity [13]: Active
Activity [14]: Active
Activity [15]: inactive
Activity (HT-1080 [16]): inactive
Activity (HT-1080 [17]): Active
Activity (HT-1080 [18]): inactive

Structure (SMILES): Cc1onc(C(=O)N2CCN(C(c3ccc(Cl)cc3)c3ccc(Cl)cc3)CC2)c1[N+](=O)[O-]
IC50 (HT-1080 [9]): 100 nM
IC50 (Calu-1): 900 nM
IC50 (A-375): 300 nM
IC50 at 24 h [10]: 200 nM
Activity [19]: Toxic
Activity (HT-1080 [20]): inactive
EC50 [21]: 650 nM
Activity [22]: > 60%
Activity [23]: Active

Structure (SMILES): Cc1onc(C(=O)N2CCN(C(c3ccc(Cl)cc3)c3ccc(OCC(=O)N4CCC(CN5CCC(CN6CCC(Nc7cccc8c7C(=O)N(C7CCC(=O)NC7=O)C8=O)CC6)CC5)CC4)cc3)CC2)c1[N+](=O)[O-] (centres undefined)
Activity [1]: 25%
IC50 (HT-1080 [9]): 1200 nM

Structure (SMILES): Cc1onc(C(=O)N2CCN(C(c3ccc(Cl)cc3)c3ccc(OCC(=O)N4CCC(CN5CCN(CCCCCNc6cccc7c6C(=O)N(C6CCC(=O)NC6=O)C7=O)CC5)CC4)cc3)CC2)c1[N+](=O)[O-] (centres undefined)
Activity [1]: > 80%
Activity [2]: 33%

Structure (SMILES): Cc1onc(C(=O)N2CCN(C(c3ccc(Cl)cc3)c3ccc(OCC(=O)N4CCC(CN5CCC(CN6CCN(c7cccc8c7C(=O)N(C7CCC(=O)NC7=O)C8=O)CC6)CC5)CC4)cc3)CC2)c1[N+](=O)[O-] (centres undefined)
Activity [1]: 30%
IC50 (HT-1080 [9]): 1000 nM

Structure (SMILES): Cc1onc(C(=O)N2CCN(C(c3ccc(Cl)cc3)c3ccc(OCC(=O)N4CCC(CN5CCN(CCNc6cccc7c6C(=O)N(C6CCC(=O)NC6=O)C7=O)CC5)CC4)cc3)CC2)c1[N+](=O)[O-] (centres undefined)
Activity [1]: > 80%
Activity [2]: 36%

Structure (SMILES): Cc1onc(C(=O)N2CCN(C(c3ccc(Cl)cc3)c3ccc(OCC(=O)N4CCC(CN5CCN(CCCCCCNc6cccc7c6C(=O)N(C6CCC(=O)NC6=O)C7=O)CC5)CC4)cc3)CC2)c1[N+](=O)[O-] (centres undefined)
Activity [1]: > 80%
Activity [2]: 50%

Structure (SMILES): Cc1onc(C(=O)N2CCN(C(c3ccc(Cl)cc3)c3ccc(OCC(=O)N4CCC(CN5CCN(CCCCNc6cccc7c6C(=O)N(C6CCC(=O)NC6=O)C7=O)CC5)CC4)cc3)CC2)c1[N+](=O)[O-] (centres undefined)
Activity [1]: 70%
Activity [2]: 42%

Other lines, results leading:

Activity [1]: 43%
Structure (SMILES): Cc1onc(C(=O)N2CCN(C(c3ccc(Cl)cc3)c3ccc(OCC(=O)N4CCN(CCCCCCCCCCNc5cccc6c5CN(C5CCC(=O)NC5=O)C6=O)CC4)cc3)CC2)c1[N+](=O)[O-] (centres undefined)

Activity [1]: 13%
Structure (SMILES): Cc1onc(C(=O)N2CCN(C(c3ccc(Cl)cc3)c3ccc(OCC(=O)N4CCN(CCCCCCCNc5cccc6c5CN(C5CCC(=O)NC5=O)C6=O)CC4)cc3)CC2)c1[N+](=O)[O-] (centres undefined)

Activity [1]: 36%
Structure (SMILES): Cc1onc(C(=O)N2CCN(C(c3ccc(Cl)cc3)c3ccc(OCC(=O)N4CCN(CCCCCCCCCCCCCNc5cccc6c5CN(C5CCC(=O)NC5=O)C6=O)CC4)cc3)CC2)c1[N+](=O)[O-] (centres undefined)

Activity [1]: < 5%
Structure (SMILES): Cc1onc(C(=O)N2CCN(C(c3ccc(Cl)cc3)c3ccc(OCC(=O)N4CCN(CCCCCCCCCCCCCCNc5cccc6c5CN(C5CCC(=O)NC5=O)C6=O)CC4)cc3)CC2)c1[N+](=O)[O-] (centres undefined)

Activity [1]: 40%
Activity [3]: Dose-Dependent Effect
EC50 [4]: 400 nM
Activity [5]: Tde
IC50 (HT-1080 [9]): 300 nM
Structure (SMILES): Cc1onc(C(=O)N2CCN(C(c3ccc(Cl)cc3)c3ccc(OCC(=O)N4CCN(CCCCCCCCCNc5cccc6c5CN(C5CCC(=O)NC5=O)C6=O)CC4)cc3)CC2)c1[N+](=O)[O-] (centres undefined)

Activity [1]: 36%
Structure (SMILES): Cc1onc(C(=O)N2CCN(C(c3ccc(Cl)cc3)c3ccc(OCC(=O)N4CCN(CCCCCCCCNc5cccc6c5CN(C5CCC(=O)NC5=O)C6=O)CC4)cc3)CC2)c1[N+](=O)[O-] (centres undefined)

Activity [1]: 32%
Structure (SMILES): Cc1onc(C(=O)N2CCN(C(c3ccc(Cl)cc3)c3ccc(OCC(=O)N4CCN(CCCCCCCCCCCCNc5cccc6c5CN(C5CCC(=O)NC5=O)C6=O)CC4)cc3)CC2)c1[N+](=O)[O-] (centres undefined)

Activity [1]: 54%
Structure (SMILES): Cc1onc(C(=O)N2CCN(C(c3ccc(Cl)cc3)c3ccc(OCC(=O)N4CCN(CCCCCCCCCCCNc5cccc6c5CN(C5CCC(=O)NC5=O)C6=O)CC4)cc3)CC2)c1[N+](=O)[O-] (centres undefined)
